For the experiment, the target named is Voltage-dependent N-type calcium channel subunit alpha-1B (Homo sapiens, UniProt Q00975). Briefly: In vitro antagonism of N-type voltage sensitive calcium channel in IMR-32 assay using fluorescent [Ca2+] indicator […] in the presence of 5 uM nitrendipine. The format is functional.
Sequence of Voltage-dependent N-type calcium channel subunit alpha-1B (Q00975 whole entry): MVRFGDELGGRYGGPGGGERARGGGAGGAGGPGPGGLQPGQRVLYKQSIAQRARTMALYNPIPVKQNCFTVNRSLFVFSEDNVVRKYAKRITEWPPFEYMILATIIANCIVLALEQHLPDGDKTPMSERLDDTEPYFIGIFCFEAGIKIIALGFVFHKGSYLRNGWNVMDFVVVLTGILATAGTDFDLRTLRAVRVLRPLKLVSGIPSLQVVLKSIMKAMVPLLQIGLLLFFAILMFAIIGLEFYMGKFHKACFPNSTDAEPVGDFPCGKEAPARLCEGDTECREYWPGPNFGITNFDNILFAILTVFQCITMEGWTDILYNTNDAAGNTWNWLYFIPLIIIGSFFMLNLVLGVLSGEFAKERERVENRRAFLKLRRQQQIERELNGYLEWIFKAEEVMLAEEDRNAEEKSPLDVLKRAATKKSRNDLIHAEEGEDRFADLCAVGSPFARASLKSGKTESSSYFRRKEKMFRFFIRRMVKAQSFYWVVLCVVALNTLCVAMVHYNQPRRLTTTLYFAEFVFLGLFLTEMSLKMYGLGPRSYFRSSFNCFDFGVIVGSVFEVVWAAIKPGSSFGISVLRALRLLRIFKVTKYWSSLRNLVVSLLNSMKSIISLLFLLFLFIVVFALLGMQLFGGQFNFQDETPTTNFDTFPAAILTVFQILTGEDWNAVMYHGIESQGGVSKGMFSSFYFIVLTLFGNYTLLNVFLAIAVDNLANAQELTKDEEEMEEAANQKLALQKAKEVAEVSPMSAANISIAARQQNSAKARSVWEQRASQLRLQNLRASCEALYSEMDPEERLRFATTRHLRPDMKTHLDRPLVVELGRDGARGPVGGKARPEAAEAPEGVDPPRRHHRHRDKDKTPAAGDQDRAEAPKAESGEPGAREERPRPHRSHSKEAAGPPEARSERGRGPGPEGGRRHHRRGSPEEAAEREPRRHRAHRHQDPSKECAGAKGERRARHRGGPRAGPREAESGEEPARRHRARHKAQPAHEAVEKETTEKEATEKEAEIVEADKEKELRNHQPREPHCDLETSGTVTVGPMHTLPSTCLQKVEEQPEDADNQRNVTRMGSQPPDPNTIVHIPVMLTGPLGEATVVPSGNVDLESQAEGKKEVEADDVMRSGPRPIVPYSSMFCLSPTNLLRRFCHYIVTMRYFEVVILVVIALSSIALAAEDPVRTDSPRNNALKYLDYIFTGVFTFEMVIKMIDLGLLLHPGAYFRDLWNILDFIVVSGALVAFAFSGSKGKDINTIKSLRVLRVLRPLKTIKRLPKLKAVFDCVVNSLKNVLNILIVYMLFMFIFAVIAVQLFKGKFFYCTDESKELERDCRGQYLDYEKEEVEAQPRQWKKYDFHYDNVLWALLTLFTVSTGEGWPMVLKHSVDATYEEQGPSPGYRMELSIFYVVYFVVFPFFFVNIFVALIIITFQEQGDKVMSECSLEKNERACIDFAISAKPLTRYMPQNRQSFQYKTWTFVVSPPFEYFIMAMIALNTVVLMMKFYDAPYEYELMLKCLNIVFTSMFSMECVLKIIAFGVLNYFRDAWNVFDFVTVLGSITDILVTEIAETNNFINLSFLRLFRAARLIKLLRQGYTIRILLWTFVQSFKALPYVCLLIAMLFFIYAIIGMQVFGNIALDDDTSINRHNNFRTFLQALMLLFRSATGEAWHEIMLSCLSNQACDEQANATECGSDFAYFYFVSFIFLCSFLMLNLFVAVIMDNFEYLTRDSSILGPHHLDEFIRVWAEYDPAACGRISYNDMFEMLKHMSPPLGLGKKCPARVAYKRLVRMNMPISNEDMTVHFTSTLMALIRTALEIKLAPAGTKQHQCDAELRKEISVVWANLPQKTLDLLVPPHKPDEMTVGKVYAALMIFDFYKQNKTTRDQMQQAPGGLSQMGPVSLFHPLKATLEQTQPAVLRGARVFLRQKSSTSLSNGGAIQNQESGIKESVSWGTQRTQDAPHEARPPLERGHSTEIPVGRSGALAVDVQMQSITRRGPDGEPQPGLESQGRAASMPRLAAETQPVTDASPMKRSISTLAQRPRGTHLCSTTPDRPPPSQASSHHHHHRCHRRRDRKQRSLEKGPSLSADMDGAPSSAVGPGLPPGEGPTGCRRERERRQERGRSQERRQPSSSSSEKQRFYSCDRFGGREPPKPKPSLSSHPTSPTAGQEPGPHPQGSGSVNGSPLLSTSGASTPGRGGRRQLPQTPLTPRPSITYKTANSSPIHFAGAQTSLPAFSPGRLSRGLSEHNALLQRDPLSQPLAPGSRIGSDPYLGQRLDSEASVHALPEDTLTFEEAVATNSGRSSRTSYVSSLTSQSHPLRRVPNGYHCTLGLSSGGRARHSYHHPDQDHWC
For orientation: IC50 means the concentration that inhibits the measured activity by half. `CC(C)C[C@@H](C(=O)N[C@@H](Cc1ccc(OCc2ccccc2)cc1)C(=O)NC1CCN(Cc2ccccc2)CC1)N(C)Cc1ccc(C(C)(C)C)cc1`: the IC50 was determined as 270 nM.

As for `CC(C)C[C@@H](C(=O)N[C@@H](Cc1ccc(OCc2ccccc2)cc1)C(=O)N1CCCCC1)N(C)CC1CCCCC1`, the IC50 turned out to be 320 nM.

Consider `CC(C)C[C@@H](C(=O)N[C@@H](Cc1ccc(OCc2ccccc2)cc1)C(=O)NC1CCN(Cc2ccccc2)CC1)N(C)C1CCCCC1`, for which the IC50 worked out at 1300 nM. In the case of `CC(C)CCN(C)[C@@H](CC(C)C)C(=O)N[C@@H](Cc1ccc(OCc2ccccc2)cc1)C(=O)NCCN1CCCCC1`, the IC50 was found to be 1100 nM. Consider `CC(C)C[C@@H](C(=O)N[C@@H](Cc1ccc(OCc2ccccc2)cc1)C(=O)N1CCN(Cc2ccccc2)CC1)N(C)C1CCCCC1`, for which the IC50 is 760 nM. The same measure for `CC(C)C[C@@H](C(=O)N[C@@H](Cc1ccc(OCc2ccccc2)cc1)C(=O)N1CCCCC1)N(C)Cc1ccc(C(C)(C)C)cc1`: 90 nM. As for `CC(C)CCN(C)[C@@H](CC(C)C)C(=O)N[C@@H](Cc1ccc(OCc2ccccc2)cc1)C(=O)N1CCN(Cc2ccccc2)CC1`, the IC50 came out at 590 nM. For the compound `CC(C)C[C@@H](C(=O)N[C@@H](Cc1ccc(OCc2ccccc2)cc1)C(=O)NC1CCN(Cc2ccccc2)CC1)N(C)C`, the IC50 was 2600 nM. As for `CC(C)C[C@@H](C(=O)N[C@@H](Cc1ccc(OCc2ccccc2)cc1)C(=O)N1CCN(Cc2ccccc2)CC1)N(C)C`, the figure is 1200 nM; as for `CC(C)C[C@@H](C(=O)N[C@@H](Cc1ccc(OCc2ccccc2)cc1)C(=O)NC(C)(C)C)N(C)C1CCCCC1`, 200 nM; as for `CC(C)C[C@@H](C(=O)N[C@@H](Cc1ccc(OCc2ccccc2)cc1)C(=O)NCCN1CCCCC1)N(C)CC1CCCCC1`, 1000 nM. Take `CC(C)CCN(C)[C@@H](CC(C)C)C(=O)N[C@@H](Cc1ccc(OCc2ccccc2)cc1)C(=O)NC1CCN(Cc2ccccc2)CC1`: the IC50 is 880 nM. For the compound `CC(C)C[C@@H](C(=O)N[C@@H](Cc1ccc(OCc2ccccc2)cc1)C(=O)NC(C)(C)C)N(C)CC1CCCCC1`, the IC50 came to 500 nM. Take `CC(C)C[C@@H](C(=O)N[C@@H](Cc1ccc(OCc2ccccc2)cc1)C(=O)N1CCN(C)CC1)N(C)Cc1ccc(C(C)(C)C)cc1`: the IC50 was found to be 440 nM. As for `CC(C)C[C@@H](C(=O)N[C@@H](Cc1ccc(OCc2ccccc2)cc1)C(=O)N1CCN(C)CC1)N(C)C`, the figure is 13000 nM.

`CC(C)C[C@@H](C(=O)N[C@@H](Cc1ccc(OCc2ccccc2)cc1)C(=O)N1CCN(C)CC1)N(C)CC1CCCCC1`: the IC50 was determined as 1200 nM.

Consider `CC(C)C[C@@H](C(=O)N[C@@H](Cc1ccc(OCc2ccccc2)cc1)C(=O)N1CCCCC1)N(C)C`, for which the IC50 worked out at 1900 nM. The same measure for `CC(C)C[C@@H](C(=O)N[C@@H](Cc1ccc(OCc2ccccc2)cc1)C(=O)NCCN1CCCCC1)N(C)Cc1ccc(C(C)(C)C)cc1`: 310 nM. Regarding `CC(C)C[C@@H](C(=O)N[C@@H](Cc1ccc(OCc2ccccc2)cc1)C(=O)NCCN1CCCCC1)N(C)C`, the IC50 came out at 4100 nM. The same measure for `CC(C)C[C@@H](C(=O)N[C@@H](Cc1ccc(OCc2ccccc2)cc1)C(=O)N1CCN(Cc2ccccc2)CC1)N(C)Cc1ccc(C(C)(C)C)cc1`: 500 nM. As for `CC(C)CCN(C)[C@@H](CC(C)C)C(=O)N[C@@H](Cc1ccc(OCc2ccccc2)cc1)C(=O)N1CCCCC1`, the figure is 660 nM; as for `CC(C)C[C@@H](C(=O)N[C@@H](Cc1ccc(OCc2ccccc2)cc1)C(=O)NCCN1CCCCC1)N(C)C1CCCCC1`, 880 nM; as for `CC(C)C[C@@H](C(=O)N[C@@H](Cc1ccc(OCc2ccccc2)cc1)C(=O)NC1CCN(Cc2ccccc2)CC1)N(C)CC1CCCCC1`, 310 nM. As for `CC(C)C[C@@H](C(=O)N[C@@H](Cc1ccc(OCc2ccccc2)cc1)C(=O)NC(C)(C)C)N(C)C`, the figure is 2800 nM. As for `CC(C)CCN(C)[C@@H](CC(C)C)C(=O)N[C@@H](Cc1ccc(OCc2ccccc2)cc1)C(=O)N1CCN(C)CC1`, the IC50 was found to be 1200 nM. As for `CC(C)C[C@@H](C(=O)N[C@@H](Cc1ccc(OCc2ccccc2)cc1)C(=O)N1CCN(C)CC1)N(C)C1CCCCC1`, the figure is 5600 nM.

With `CC(C)C[C@@H](C(=O)N[C@@H](Cc1ccc(OCc2ccccc2)cc1)C(=O)N1CCN(Cc2ccccc2)CC1)N(C)CC1CCCCC1`, the IC50 amounted to 420 nM. The same measure for `CC(C)C[C@@H](C(=O)N[C@@H](Cc1ccc(OCc2ccccc2)cc1)C(=O)NC(C)(C)C)N(C)Cc1ccc(C(C)(C)C)cc1`: 40 nM; for `CC(C)C[C@@H](C(=O)N[C@@H](Cc1ccc(OCc2ccccc2)cc1)C(=O)N1CCCCC1)N(C)C1CCCCC1`: 380 nM; for `CC(C)CCN(C)[C@@H](CC(C)C)C(=O)N[C@@H](Cc1ccc(OCc2ccccc2)cc1)C(=O)NC(C)(C)C`: 320 nM.

Values taken from ChEMBL document CHEMBL1131770, “Multiple parallel synthesis of N,N-dialkyldipeptidylamines as N-type calcium channel blockers” (Bioorg Med Chem Lett, 1999).
